Key:
[1] = tested on: U87MG (human glioblastoma astrocytoma); assay: Cell adhesion assay on matrigel coated wells, U87MG; assay type: cell-based; conditions: test compound at 2.5 µM, percent of adhesion with respect to the control (100%)
Procedure: Cell surface, non-integrin molecules such as heparan sulfate proteoglycans (HSPGs) may be involved in the regulation of early adhesive stages of cell-ECM interactions. A cell adhesion assay has been employed to determine if the newly designed heparanase inhibitors were able to interfere with adhesion properties of cancer cells.
HT1080 (human fibrosarcoma) and U87MG (human glioblastoma astrocytoma) cells were treated for 18-20 h with test compounds in complete medium supplemented with 10% FCS. Then cells were collected, washed in complete medium, and added to matrigel coated wells in triplicate, at previously identified optimal seeding density, and incubated at 37 °C in complete medium for times ranging from 15 minutes to 4h, according to the cell line. After incubation, the wells were washed three times with serum-free medium and the remaining firmly attached cells were stained with crystal-violet 0.1%. Optical density was measured at 560 nm by Victor 3 (Perkin-Elmer) plate analyzer. Each experiment was repeated three times.
(§1) Table 3. […] In Invasion assay, data were expressed as the percent invasion (range) with respect to cell migration through uncoated insert membrane. In Adhesion assay, data were expressed as the percent of adhesion with respect to the control (100%). • Legend • ++: 50-90% • + : < 50% • - : Not Active

[2] = tested on: HT1080 (human fibrosarcoma); assay: SRB Cell Cytotoxicity Assay, HT1080; assay type: cell-based; conditions: HT-1080, HT1080, 72h treatment, read-out: Concentration (µM) of test compounds at which the cell growth is inhibited by 50 %. HT1080
From the text: (§2) SRB Cell Cytotoxicity Assay is an assay based upon the quantitative staining of cellular proteins by sulforhodamine B (SRB). This assay can be used for high-throughput drug screening (Vichai & Kirkitara, Nature Protocol. 2006, 1, 112). Sulforhodamine B is an anionic aminoxanthene dye that forms an electrostatic complex with the basic amino acid residues of proteins under moderately acid conditions, which provides a sensitive linear response.
(§3) To assess a putative antiproliferative activity of the selected compounds, HT1080 (human fibrosarcoma), U87MG (human glioblastoma astrocytoma) and U2OS (human osteosarcoma) cell lines were treated for 72h, in triplicate, with increasing concentrations of heparanase inhibitors. Inhibition of cell proliferation was then measured by the classical colorimetric SRB Cell Cytotoxicity assay. Absorbance was measured by spectrophotometer at a wavelength of 510 nm and cell proliferation was determined as percent with respect to control cells (cells treated with the vehicle alone). EC50 values were then determined by GraphPad Prism.

[3] = tested on: U2OS (human osteosarcoma); assay: Matrigel cell invasion assay, U2OS; assay type: cell-based; conditions: Homo sapiens, test compound at 2.5 µM, 24 h pre-treatment, 24 h invasion
Procedure: (§4) Heparanase inhibitors were then evaluated for their activity on the invasive potential of HT1080 (human fibrosarcoma), U87MG (human glioblastoma astrocytoma) and U2OS (human osteosarcoma) human cell lines, using the Matrigel cell invasion assay which allows to assess the cell invasion ability of malignant and normal cells.
(§5) Invasion assay was performed using BioCoat cell culture inserts (BioCoat 8.0µm PET Membrane 24 Well Permeable Supports, Corning). Filters were coated with 100 µl of 300 µg/ml Matrigel dissolved in coating buffer (0.01 M Tris pH 8.0, 0.7% NaCl) (Becton-Dickinson Sciences). DMEM (Dulbecco's Modified Eagle's Medium) containing 5% FBS was added to the lower chambers. Cells were pre-treated with heparanase inhibitors for 24 h, detached and added to the upper chambers in media containing the inhibitors. Cells were allowed to invade for 24 h at 37°C in a CO2 incubator and then unmigrated cells were removed from the upper chamber with a cotton swab. The invading cells were fixed, stained with 0.1% crystal violet for 10 min at room temperature, photographed and counted under inverted microscope.
(§6) Test compounds were analyzed at fixed concentration (2.5 µM) for several fields, in duplicates. Activity of test compounds was compared to the reference compound. Activity of most interesting compound was confirmed in a second cell invasion assay. Data were expressed as the percent invasion with respect to cell migration through uncoated insert membrane (see Table 3 below)
as §1

[4] = tested on: U2OS (human osteosarcoma); assay: SRB Cell Cytotoxicity Assay, U2OS; assay type: cell-based; conditions: 72h treatment, read-out: Concentration (µM) of test compounds at which the cell growth is inhibited by 50 %. U2OS
From the text: as §2, §3

[5] = tested on: HPSE-1; assay: Real-Time quantitative PCR of HPSE-1 mRNA in HT1080 cells; assay type: cell-based, human; conditions: 24 h
Procedure: (§7) To evaluate the effect of heparanase inhibitors on the tumor transcription of genes encoding for proangiogenic factors, such as FGF1/2, VEGF, MMP-9, HSPE-1, the relative mRNA levels were analyzed by quantitative Real-Time Quantitative PCR. To perform the assay, HT1080 (human fibrosarcoma) cells were cultured in complete medium containing 10%FCS (fetal calf serum). Cells were plated in 24-well plates and treated at fixed concentration (i.e., highest non-toxic concentration) of test compounds. After 24 h, cells were detached, collected and total RNA extracted by RNeasy Mini Kit (QIAGEN). Following reverse transcription step, FGF1/2, VEGF, MMP-9, HSPE-1 mRNA levels, were quantified by qPCR using the advanced Universal SYBR Green Supermix (Bio Rad) and ABI PRISM 7900HT Thermal Cycler System (Perkin Elmer), according to the manufacturer's instructions. Appropriate no-RT and non-template controls were included in each 96-well PCR reaction, and dissociation analysis was performed at the end of each run to confirm the specificity of the reaction. Relative levels of RNA were calculated using the ddCt method. Standard curve and sample data were run in duplicate.
(§8) In the Table 5 a mean value is reported.

[6] = tested on: MMP-9; assay: Real-Time quantitative PCR of MMP-9 mRNA in HT1080 cells; assay type: cell-based, human; conditions: 24 h
Procedure: as §7, §8

[7] = tested on: U87MG (human glioblastoma astrocytoma); assay: SRB Cell Cytotoxicity Assay, U87MG; assay type: cell-based; conditions: U-87 MG, 72h treatment, read-out: Concentration (µM) of test compounds at which the cell growth is inhibited by 50 %. U87MG
From the text: as §2, §3

[8] = tested on: U87MG (human glioblastoma astrocytoma); assay: Matrigel cell invasion assay, U87MG; assay type: cell-based; conditions: Homo sapiens, U-87 MG, test compound at 2.5 µM, 24 h pre-treatment, 24 h invasion
Procedure: as §4, §5, §6, §1

SMILES | Adhesion Assay (%) U87MG [1] [%] | EC50 [2] [µM] | inhibition at 2.5 µM [3] [%] | EC50 [4] [µM] | Gene Expression (% mRNA vs. control) HPSE-1 ([5]; 2.5 uM) | Gene Expression (% mRNA vs. control) MMP-9 ([6]; 2.5 uM) | EC50 [7] [µM] | inhibition at 2.5 µM [8] [%] | Gene Expression (% mRNA vs. control) HPSE-1 ([5]; 10.0 uM) | Gene Expression (% mRNA vs. control) MMP-9 ([6]; 10.0 uM)
O=C(O)Cc1ccc2oc(-c3ccc(NC(=O)Nc4ccc(-c5nc6cc(CC(=O)O)ccc6o5)cc4F)c(F)c3)nc2c1 [Compound 20, 2,2'-(((Carbonylbis(azanediyl))bis(3-fluoro-4,1-phenylene))bis(benzo[d]oxazole-2,5-diyl))diacetic acid] | 64.90 | > 10 | 50 to 90 | > 10 | ∼ 100% | ∼ 70% | > 10 | 50 to 90 |  | 
O=C(O)CNC(=O)Cc1ccc2oc(-c3ccc(NC(=O)Nc4ccc(-c5nc6cc(CC(=O)NCC(=O)O)ccc6o5)cc4F)c(F)c3)nc2c1 [Compound 25, 2,2'-((2,2'-(((Carbonylbis(azanediyl))bis(3-fluoro-4,1-phenylene))bis(benzo[d]oxazole-2,5-diyl))bis(acetyl))bis(azanediyl))diacetic acid] | 12.30 | > 10 | < 50 | > 10 |  |  | > 10 | 50 to 90 | ∼ 62% | ∼ 65%

— patent publication EP3381907A1, “SYMMETRICAL 2-AMINOPHENYL-BENZAZOLYL-5-ACETATE COMPOUNDS AND THEIR USE AS ANTI-HEPARANASE” (Leadiant Biosciences SA, priority 2017, dated 2018)
